Results published in patent US9499787B2, “Method for differentiating stem cells into neurons” (Dongguk University Industry-Academic Cooperation Foundation, priority 2012, dated 2016).

Key:
[1] = system: Mesenchymal stem cells; test: Cell viability measured by MTT; format: cell-based, human
Procedure: The cell viability was measured by MTT (3-(4,5-dimethylthiazol-2-yl)-2,5-diphenyltetrazolium bromide). Specifically, MTT solution (0.0333 g/ml DMEM) was added to the neural cells cultured in Example 3 for reaction at 37° C. for 90 minutes and then removed. Then, dimethyl sulfoxide (DMSO) was added and left to stand for 10 minutes, and the resulting solution was used to measure the absorbance at 570 nm using a spectrum analyzer. Mesenchymal stem cells were seeded in low glucose-Dulbecco's Modified Eagle's Medium (LG-DMEM) containing 10% fetal bovine serum (FBS) at a density of 5×10^3 cell/cm2. 24 hours after seeding, the medium was replaced with fresh DMEM/F-12 (1:1 mixed medium) supplemented with 1 ug hydrocortisone, […], 1% bovine serum albumin, and 0, 1, 2, 3, 4, 5 or 8 mM lipoic acid to induce differentiation into neural cells. Moreover, 1 ug forskolin or […] (NGF) might be further added to enhance differentiation into neural cells. […]

[2] = system: Mesenchymal stem cells; test: Differentiation into neural cells, cellular morphology under a microscope; format: cell-based, human; conditions: for maintenance of the morphology of neural cells: after induction of differentiation
Procedure: Mesenchymal stem cells obtained from adipose tissue used in this Example were StemPro® Adipose-derived Stem Cells (Product No. R7788-110) purchased from Invitrogen. Frozen ampoules were thawed, and cells were washed with DMEM, centrifuged at 800 RPM for 5 minutes, and cultured in DMEM containing low glucose (1000 mg/L) and supplemented with 10% fetal bovine serum (FBS).
(§1) Mesenchymal stem cells were seeded in low glucose-Dulbecco's Modified Eagle's Medium (LG-DMEM) containing 10% fetal bovine serum (FBS) at a density of 5×10^3 cell/cm2. 24 hours after seeding, the medium was replaced with fresh DMEM/F-12 (1:1 mixed medium) supplemented with 1 uM hydrocortisone, […], 1% bovine serum albumin, and 0, 1, 2, 3, 4, 5 or 8 mM lipoic acid to induce differentiation into neural cells. Moreover, 1 uM forskolin was further added to promote differentiation into neural cells.

[3] = system: Mesenchymal stem cells; test: Immunofluorescence staining of neuron-associated proteins; format: cell-based, human; conditions: all cases treated with lipoic acid, 5 days after differentiation, compared to the control
Procedure: as §1
The neural cells cultured in Example 3 were fixed on glass coverslips with 4% paraformaldehyde for 10 minutes, blocked with PBS containing 1.5% bovine serum albumin (BSA), and then permeabilized with PBS containing 0.5% Triton™ X-100. Then, the cells were reacted with primary antibodies such as anti-NF-L, anti-MAP2, anti-GFAP, anti-NeuroD1 (Cell Signaling, USA), and anti-tau (Biosource, USA) at 4° C. for 16 hours. Then, the cells were washed with PBS for 10 minutes and reacted with species-specific secondary antibodies such as anti-rabbit IgG-Alexa Fluor® 488 or anti-mouse IgG-Alexa Fluor® 555 conjugate at room temperature for 1 hour. Then, the stained cells were mounted with Vectashield® mounting medium containing DAPI and contrast stained. The cells were examined using a Confocal Laser Scanning Microscope (LSM 510-meta, Germany), and the results are shown in FIG. 9.

[4] = system: human cells; conditions: serum-free culture of human cells; cited from earlier work
[5] = system: Mesenchymal stem cells; test: RT-PCR of neuron-related genes (MAP2, DCX, Tau, NeuroD1, NSE, Nestin, NF-L); format: cell-based, human; conditions: 5 days after differentiation, compared to the control
Procedure: as §1
The total RNA was recovered and isolated using TRIzol® solution (Invitrogen, USA), and then 1 ug RNA was used to synthesize cDNA using an RT-PCR kit (Clontech, USA). The genes to be analyzed were MAP2, DCX, Tau, NeuroD1, NSE, Nestin and NF-L, and the primers used for the analysis are shown in the following Table 1.

[6] = system: Mesenchymal stem cells; test: Western blot analysis of neuron-associated proteins (NSE, Nestin, NF-L); format: cell-based, human; conditions: 5 days after differentiation, compared to the control
Procedure: as §1
The neural cells cultured in Example 3 were washed with phosphate-buffered saline (PBS) and lysed with radioimmunoprecipitation (RIPA) buffer containing protease inhibitor. The total protein was measured using a BCA® Protein Assay kit (Pierce, USA), and 10 ug protein was electrophoresed on a 10% polyacrylamide gel and transferred to a nitrocellulose membrane. Then, the membrane was blocked with Tris-buffered saline (TBS) containing 5% skim milk and 0.5% Tween® 20 at room temperature for 30 minutes and reacted with antibodies such as anti-NSE, anti-Nestin, Anti-NF-L (Cell Signaling, USA), and β-actin (Sigma, USA) at 4° C. for 16 hours. Subsequently, the membrane was reacted with an anti-mouse or anti-rabbit secondary antibody at room temperature for 1 hour, exposed to ECL™ (Pierce™ Biotechnology, USA), and then imaged using a ChemiDoc™ XRS+Imaging System (BioRad®, USA).

## O=C(O)CCCC[C@@H]1CCSS1 (racemic) [lipoic acid]
[1]; human, 4 mM
  cell viability: 61.4%
[1]; human, 8 mM
  cell viability: 51.4%
[2]
  maintenance of the morphology of neural cells: well maintained up to 5 days
[2]; lipoic acid at 1 mM, 5 days, with hydrocortisone, insulin, 1% bovine serum albumin
  morphological changes of neural cells: no change
[2]; lipoic acid at more than 2 mM, 5 days, with 1 uM hydrocortisone, […], 1% bovine serum albumin
  morphological changes of neural cells (dendrite formation): dendrites were well formed
[3]
  expression of neuron-associated proteins (immunofluorescence): increased
[4]
  concentration known to cause cell apoptosis: ≥ 2000 µM
[5]; 4 mM lipoic acid
  expression of neuron-related genes (mRNAs): further increased
[5]; 8 mM lipoic acid
  expression of neuron-related genes (mRNAs): increased
[6]; 4 mM lipoic acid
  expression of neuron-associated proteins (Western blot): further increased
[6]; 8 mM lipoic acid
  expression of neuron-associated proteins (Western blot): increased

## COc1ccc(O)c(C(C)(C)C)c1 [butylated hydroxyanisole]
[1]; 5 days, 200 ug butylated hydroxyanisole (control)
  cell viability: too low
[2]
  maintenance of the morphology of neural cells: destroyed after 24 hours
